Assays:
Assay in all cases: relative viability (nuclei count vs DMSO), 5 days (fraction); higher = more cells survive
201T = tested on: 201T
Summary of the method: (§1)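 Relative viability was taken as the ratio of nuclei in treated wells to nuclei in vehicle wells. Lung cancer cell lines in 1536-well plates received compounds by pin tool one day after seeding, either one drug alone or a fixed anchor-drug dose plus five library-drug doses (not always all listed) in √10 steps. Nuclei were counted on 4× images after 5 days of treatment, and values are medians of duplicate plates.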

ChaGo-K-1 = tested on: ChaGo-K-1
Summary of the method: as §1

HCC-78 = tested on: HCC-78
Summary of the method: as §1

HCC-827 = tested on: HCC-827
Summary of the method: as §1

LCLC-103H = tested on: LCLC-103H
Summary of the method: as §1

LCLC-97TM1 = tested on: LCLC-97TM1
Summary of the method: as §1

LOU-NH91 = tested on: LOU-NH91
Summary of the method: as §1

NCI-H1437 = tested on: NCI-H1437
Summary of the method: as §1

NCI-H1755 = tested on: NCI-H1755
Summary of the method: as §1

NCI-H1792 = tested on: NCI-H1792
Summary of the method: as §1

NCI-H2023 = tested on: NCI-H2023
Summary of the method: as §1

NCI-H2085 = tested on: NCI-H2085
Summary of the method: as §1

NCI-H2126 = tested on: NCI-H2126
Summary of the method: as §1

NCI-H2170 = tested on: NCI-H2170
Summary of the method: as §1

NCI-H2405 = tested on: NCI-H2405
Summary of the method: as §1

NCI-H441 = tested on: NCI-H441
Summary of the method: as §1

NCI-H596 = tested on: NCI-H596
Summary of the method: as §1

NCI-H650 = tested on: NCI-H650
Summary of the method: as §1

NCI-H727 = tested on: NCI-H727
Summary of the method: as §1

RERF-LC-KJ = tested on: RERF-LC-KJ
Summary of the method: as §1

SK-MES-1 = tested on: SK-MES-1
Summary of the method: as §1

Compound: COCC1(CO)C(=O)C2CCN1CC2 (stereo unspecified) [PRIMA-1MET] + C[C@@H](Oc1cc(-c2cnn(C3CCNCC3)c2)cnc1N)c1c(Cl)ccc(F)c1Cl [Crizotinib] (partner 1 µM)
- relative viability (201T; first compound 0.2 µM): 1.11
- relative viability (201T; first compound 0.6325 µM): 1
- relative viability (201T; first compound 2 µM): 0.901
- relative viability (201T; first compound 6.325 µM): 1.06
- relative viability (201T; first compound 20 µM): 1.04
- relative viability (ChaGo-K-1; first compound 0.2 µM): 1.31
- relative viability (ChaGo-K-1; first compound 0.6325 µM): 0.898
- relative viability (ChaGo-K-1; first compound 2 µM): 1.02
- relative viability (ChaGo-K-1; first compound 6.325 µM): 1.15
- relative viability (ChaGo-K-1; first compound 20 µM): 1.02
- relative viability (HCC-78; first compound 0.2 µM): 0.427
- relative viability (HCC-78; first compound 0.6325 µM): 0.34
- relative viability (HCC-78; first compound 6.325 µM): 0.353
- relative viability (HCC-78; first compound 20 µM): 0.0613
- relative viability (HCC-827; first compound 0.2 µM): 1.06
- relative viability (HCC-827; first compound 0.6325 µM): 0.813
- relative viability (HCC-827; first compound 2 µM): 0.796
- relative viability (HCC-827; first compound 6.325 µM): 0.978
- relative viability (HCC-827; first compound 20 µM): 0.896
- relative viability (LCLC-103H; first compound 0.2 µM): 1.16
- relative viability (LCLC-103H; first compound 0.6325 µM): 1.05
- relative viability (LCLC-103H; first compound 2 µM): 0.894
- relative viability (LCLC-103H; first compound 6.325 µM): 1.11
- relative viability (LCLC-103H; first compound 20 µM): 1.06
- relative viability (LCLC-97TM1; first compound 0.2 µM): 0.494
- relative viability (LCLC-97TM1; first compound 2 µM): 0.378
- relative viability (LCLC-97TM1; first compound 6.325 µM): 0.234
- relative viability (LCLC-97TM1; first compound 20 µM): 0.0997
- relative viability (LOU-NH91; first compound 0.2 µM): 0.788
- relative viability (LOU-NH91; first compound 0.6325 µM): 0.583
- relative viability (LOU-NH91; first compound 2 µM): 0.743
- relative viability (LOU-NH91; first compound 6.325 µM): 0.773
- relative viability (LOU-NH91; first compound 20 µM): 0.681
- relative viability (NCI-H1437; first compound 0.2 µM): 1.07
- relative viability (NCI-H1437; first compound 0.6325 µM): 0.896
- relative viability (NCI-H1437; first compound 2 µM): 0.9
- relative viability (NCI-H1437; first compound 6.325 µM): 0.991
- relative viability (NCI-H1437; first compound 20 µM): 0.862
- relative viability (NCI-H1755; first compound 0.2 µM): 0.996
- relative viability (NCI-H1755; first compound 0.6325 µM): 0.825
- relative viability (NCI-H1755; first compound 2 µM): 0.826
- relative viability (NCI-H1755; first compound 6.325 µM): 0.915
- relative viability (NCI-H1755; first compound 20 µM): 0.81
- relative viability (NCI-H1792; first compound 0.2 µM): 1.08
- relative viability (NCI-H1792; first compound 0.6325 µM): 0.884
- relative viability (NCI-H1792; first compound 2 µM): 1.1
- relative viability (NCI-H1792; first compound 6.325 µM): 0.991
- relative viability (NCI-H1792; first compound 20 µM): 0.971
- relative viability (NCI-H2023; first compound 0.2 µM): 0.764
- relative viability (NCI-H2023; first compound 0.6325 µM): 0.623
- relative viability (NCI-H2023; first compound 2 µM): 0.601
- relative viability (NCI-H2023; first compound 6.325 µM): 0.694
- relative viability (NCI-H2023; first compound 20 µM): 0.584
- relative viability (NCI-H2085; first compound 0.2 µM): 0.886
- relative viability (NCI-H2085; first compound 0.6325 µM): 0.747
- relative viability (NCI-H2085; first compound 2 µM): 0.692
- relative viability (NCI-H2085; first compound 6.325 µM): 0.518
- relative viability (NCI-H2085; first compound 20 µM): 0.155
- relative viability (NCI-H2126; first compound 0.2 µM): 1.08
- relative viability (NCI-H2126; first compound 0.6325 µM): 1.02
- relative viability (NCI-H2126; first compound 2 µM): 0.957
- relative viability (NCI-H2126; first compound 6.325 µM): 1.04
- relative viability (NCI-H2126; first compound 20 µM): 1.04
- relative viability (NCI-H2170; first compound 0.2 µM): 1.38
- relative viability (NCI-H2170; first compound 0.6325 µM): 1.13
- relative viability (NCI-H2170; first compound 2 µM): 1.02
- relative viability (NCI-H2170; first compound 6.325 µM): 1.26
- relative viability (NCI-H2170; first compound 20 µM): 1.21
- relative viability (NCI-H2405; first compound 0.2 µM): 0.679
- relative viability (NCI-H2405; first compound 0.6325 µM): 0.847
- relative viability (NCI-H2405; first compound 6.325 µM): 0.818
- relative viability (NCI-H2405; first compound 20 µM): 0.452
- relative viability (NCI-H441; first compound 0.2 µM): 0.934
- relative viability (NCI-H441; first compound 0.6325 µM): 0.78
- relative viability (NCI-H441; first compound 2 µM): 0.646
- relative viability (NCI-H441; first compound 6.325 µM): 0.663
- relative viability (NCI-H441; first compound 20 µM): 0.362
- relative viability (NCI-H596; first compound 0.2 µM): 1.08
- relative viability (NCI-H596; first compound 0.6325 µM): 0.962
- relative viability (NCI-H596; first compound 2 µM): 0.863
- relative viability (NCI-H596; first compound 6.325 µM): 1.04
- relative viability (NCI-H596; first compound 20 µM): 0.174
- relative viability (NCI-H650; first compound 0.2 µM): 0.894
- relative viability (NCI-H650; first compound 2 µM): 0.616
- relative viability (NCI-H650; first compound 6.325 µM): 0.675
- relative viability (NCI-H650; first compound 20 µM): 0.109
- relative viability (NCI-H727; first compound 0.2 µM): 0.841
- relative viability (NCI-H727; first compound 0.6325 µM): 0.873
- relative viability (NCI-H727; first compound 2 µM): 0.82
- relative viability (NCI-H727; first compound 6.325 µM): 0.715
- relative viability (NCI-H727; first compound 20 µM): 0.117
- relative viability (RERF-LC-KJ; first compound 0.2 µM): 0.868
- relative viability (RERF-LC-KJ; first compound 0.6325 µM): 0.767
- relative viability (RERF-LC-KJ; first compound 2 µM): 0.86
- relative viability (RERF-LC-KJ; first compound 6.325 µM): 0.85
- relative viability (RERF-LC-KJ; first compound 20 µM): 0.847
- relative viability (SK-MES-1; first compound 0.2 µM): 1.09
- relative viability (SK-MES-1; first compound 0.6325 µM): 0.968
- relative viability (SK-MES-1; first compound 2 µM): 1.03
- relative viability (SK-MES-1; first compound 6.325 µM): 0.943
- relative viability (SK-MES-1; first compound 20 µM): 0.997
